Patent publication US12479846B2, “EZH2 inhibitor and use thereof” (PHARMABLOCK SCIENCES (NANJING) , INC., priority 2019, dated 2025)

Columns and labels:
Karpas422 cells = experiment: Cell proliferation inhibition test (CCK8), Karpas422; format: cell-based; details: Homo sapiens, KARPAS-422, 288 h; B-cell non-Hodgkin's lymphoma cell line, 12 days incubation, CCK8 cell viability
From the text: (§1) Cell Proliferation Inhibition Test
(§2) Karpass 422 and WSUDLCL-2 cells were purchased from the European Collection of Authenticated Cell Cultures (ECACC) and the German Collection of Microorganisms and Cell Cultures (Deutsche Sammlung von Mikroorganismen und Zellkulturen, DSMZ). RMBI 1640 medium, penicillin-streptomycin, heat-inactivated fetal bovine senum (FBS), and horse serum were purchased from ThermoFisher (Waltham MA, USA). Corning 96-well cell culture plate was purchased from ThermoFisher (Waltham MA, USA).
(§3) To evaluate the inhibitory effect of the synthesized compounds on the proliferation of B-cell non-Hodgkin's lymphoma Karpass 422 and WSUDLCL-2 cells, exponentially growing cells were inoculated in RMPI1640 medium containing 20% and 10% horse serum and 1% penicillin-streptomycin at concentrations of 2000 cells/ml and 3000 cells/ml, respectively, in 96-well plates, 100 μL per well, and incubated overnight in an incubator at 37° C. and 5% CO2. The compound was prepared in DMSO into a 10-point, 3-fold series diluent, starting at 6 mM. 1 μL of DMSO solution from a compound reserve plate was added to 99 μL of cell culture medium (the final maximum concentration of the compound in the assay was 30 μM and the final concentration of DMSO was 0.5%). 100 μL of compound solution from the medium was added to each well of the Karpass422 cell plate. After the addition of the compound solution, the assay plate was incubated at 37° C. and 5% CO2 for 12 days. During the incubation, the cell culture medium was replaced with the cell culture medium having the newly dissolved test compound every 4 days. After 100 μL of the old medium was removed from the cell plate, 100 μL of medium having dissolved test compound was added to the assay plate, which was prepared by adding 1 μL of compound DMSO series solution to 199 μL of cell medium with the same layout as the original preparation layout. Cell viability was measured by using cell count kit-8 (CCK8) purchased from Beyotime Biotechnology (Shanghai, China). 20 μL of CCK8 reagent was added to each well of the assay plate and incubated at 37° C. for 2 hours. The O.D. at 450 nm was read by using a FlexStation 3 microplate reader (Molecular Devices, Sunnyvale, CA 94089 USA).

WSUDLCL-2 cells = experiment: Cell proliferation inhibition test (CCK8), WSUDLCL-2; format: cell-based; details: Homo sapiens, WSUDLCL2, 288 h; B-cell non-Hodgkin's lymphoma cell line, 12 days incubation, CCK8 cell viability
From the text: as §1, §2, §3

Wild-type PRC2/EZH2 = molecular target: T1, Wild-type PRC2/EZH2 (Homo sapiens, UniProt Q15910); experiment: PRC2/EZH2 HTRF enzyme inhibition test; format: biochemical; details: human recombinant PRC2 complex, 30 μM SAM, 10 μM biotin-H3 (21-44) peptide
T1 construct: purchased Reaction Biology (Malvern, PA); host or cells: insect cell/baculovirus expression system
T1 sequence (Q15910 whole entry): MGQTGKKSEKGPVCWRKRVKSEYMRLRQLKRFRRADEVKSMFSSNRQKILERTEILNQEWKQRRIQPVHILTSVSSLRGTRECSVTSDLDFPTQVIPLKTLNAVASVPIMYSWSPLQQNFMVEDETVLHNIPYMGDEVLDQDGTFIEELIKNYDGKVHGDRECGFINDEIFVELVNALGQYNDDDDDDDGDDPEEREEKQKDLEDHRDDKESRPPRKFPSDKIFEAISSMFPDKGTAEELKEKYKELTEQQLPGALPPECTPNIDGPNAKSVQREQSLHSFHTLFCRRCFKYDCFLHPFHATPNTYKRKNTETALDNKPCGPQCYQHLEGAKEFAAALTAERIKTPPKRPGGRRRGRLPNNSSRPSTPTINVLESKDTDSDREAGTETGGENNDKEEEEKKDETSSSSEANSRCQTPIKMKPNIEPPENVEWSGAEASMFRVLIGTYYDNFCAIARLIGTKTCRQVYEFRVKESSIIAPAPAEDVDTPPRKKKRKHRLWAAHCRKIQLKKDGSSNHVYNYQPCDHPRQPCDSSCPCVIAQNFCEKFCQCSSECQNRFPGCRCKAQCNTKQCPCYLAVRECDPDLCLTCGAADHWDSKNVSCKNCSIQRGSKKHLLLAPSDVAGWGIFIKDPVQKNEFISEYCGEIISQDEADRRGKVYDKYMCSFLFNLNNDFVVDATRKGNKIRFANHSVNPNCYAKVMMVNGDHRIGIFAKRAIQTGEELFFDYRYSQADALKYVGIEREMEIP
T1 sequence (Q6ZN18 whole entry partner): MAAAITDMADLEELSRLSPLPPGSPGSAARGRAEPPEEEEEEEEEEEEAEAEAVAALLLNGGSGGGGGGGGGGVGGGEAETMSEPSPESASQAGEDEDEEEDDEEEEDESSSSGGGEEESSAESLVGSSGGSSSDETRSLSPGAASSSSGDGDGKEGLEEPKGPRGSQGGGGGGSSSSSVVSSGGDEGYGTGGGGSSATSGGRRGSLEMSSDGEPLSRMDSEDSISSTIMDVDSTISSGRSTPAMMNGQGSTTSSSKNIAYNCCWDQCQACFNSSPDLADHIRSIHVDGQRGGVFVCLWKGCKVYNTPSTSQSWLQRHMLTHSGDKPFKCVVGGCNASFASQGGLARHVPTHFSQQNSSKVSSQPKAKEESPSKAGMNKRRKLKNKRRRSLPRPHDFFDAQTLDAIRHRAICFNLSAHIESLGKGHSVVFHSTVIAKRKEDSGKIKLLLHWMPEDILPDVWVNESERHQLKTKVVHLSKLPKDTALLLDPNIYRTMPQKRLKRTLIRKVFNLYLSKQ
T1 sequence (O75530 whole entry partner): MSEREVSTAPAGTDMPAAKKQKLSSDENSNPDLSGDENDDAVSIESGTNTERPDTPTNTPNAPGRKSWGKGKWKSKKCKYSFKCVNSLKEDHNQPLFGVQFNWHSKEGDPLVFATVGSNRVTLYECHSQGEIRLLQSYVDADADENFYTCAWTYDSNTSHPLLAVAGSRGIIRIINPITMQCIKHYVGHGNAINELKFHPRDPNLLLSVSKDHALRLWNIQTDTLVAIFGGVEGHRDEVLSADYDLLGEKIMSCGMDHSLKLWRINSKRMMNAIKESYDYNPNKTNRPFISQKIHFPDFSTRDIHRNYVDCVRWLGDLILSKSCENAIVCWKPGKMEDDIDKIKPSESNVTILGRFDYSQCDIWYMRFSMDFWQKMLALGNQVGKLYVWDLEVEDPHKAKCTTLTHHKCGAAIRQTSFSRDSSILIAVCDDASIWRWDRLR
T1 sequence (Q09028 whole entry partner): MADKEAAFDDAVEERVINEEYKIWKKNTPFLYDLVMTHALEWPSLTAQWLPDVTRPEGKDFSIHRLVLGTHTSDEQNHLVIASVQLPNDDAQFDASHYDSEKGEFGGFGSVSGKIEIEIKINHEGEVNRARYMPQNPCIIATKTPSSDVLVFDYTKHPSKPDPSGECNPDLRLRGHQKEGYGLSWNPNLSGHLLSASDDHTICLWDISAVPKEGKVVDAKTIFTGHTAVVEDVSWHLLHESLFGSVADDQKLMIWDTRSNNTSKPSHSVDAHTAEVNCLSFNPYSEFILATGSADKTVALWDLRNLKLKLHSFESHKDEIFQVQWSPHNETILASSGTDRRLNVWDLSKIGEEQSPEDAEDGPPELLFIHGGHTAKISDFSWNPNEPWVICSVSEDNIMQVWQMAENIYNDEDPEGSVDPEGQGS
T1 sequence (Q15022 whole entry partner): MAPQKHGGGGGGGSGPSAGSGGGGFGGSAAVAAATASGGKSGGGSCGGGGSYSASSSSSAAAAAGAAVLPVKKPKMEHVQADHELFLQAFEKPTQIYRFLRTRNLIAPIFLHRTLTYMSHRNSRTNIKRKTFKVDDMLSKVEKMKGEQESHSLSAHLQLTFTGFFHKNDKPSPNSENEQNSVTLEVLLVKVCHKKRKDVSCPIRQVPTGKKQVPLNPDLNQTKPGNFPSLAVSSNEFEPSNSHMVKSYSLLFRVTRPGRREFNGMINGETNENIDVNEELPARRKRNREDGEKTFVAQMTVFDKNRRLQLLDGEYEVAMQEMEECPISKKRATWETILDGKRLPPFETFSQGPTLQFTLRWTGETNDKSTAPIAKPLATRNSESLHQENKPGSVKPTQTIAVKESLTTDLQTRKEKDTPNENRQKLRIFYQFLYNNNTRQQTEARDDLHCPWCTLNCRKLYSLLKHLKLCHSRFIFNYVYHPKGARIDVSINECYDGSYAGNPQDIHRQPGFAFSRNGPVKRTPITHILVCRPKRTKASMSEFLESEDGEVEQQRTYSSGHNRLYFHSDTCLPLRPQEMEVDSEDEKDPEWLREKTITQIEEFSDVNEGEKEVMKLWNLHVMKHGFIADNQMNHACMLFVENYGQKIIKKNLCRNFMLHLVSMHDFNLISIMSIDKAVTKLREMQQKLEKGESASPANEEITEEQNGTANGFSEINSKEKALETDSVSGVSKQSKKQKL
From the text: The human recombinant PRC2 complex was composed of human recombinant EZH2, AEBP2, EED, RbAp48, and SUZ12, co-expressed in an insect cell/baculovirus expression system, and purchased from Reaction Biology (Malvern, PA). […] The HTRF detection kit including monoclonal antibody histone H3K27Mel-Eu (K) fluorescent donor and streptavidin labeled XL665 fluorescent receptor was purchased from Cisbio (Shanghai, China). S-adenosylmethionine (SAM), Tween 20, dimethyl sulfoxide (DMSO), and Tris buffer at the highest purity level were purchased from Sigma.
The experiment was carried out in a buffer consisting of 50 mM Tris, pH 9.0, 0.1% BSA, and 0.01% Tween 20, and 1 mM DTT was added before the experiment started. 2.5 μL of a solution of a compound in 4% DMSO and 5 μL of PRC2/SAM mixed solution pre-incubated for 30 minutes were added to the buffer, and then the buffer was added to a white low-volume 384-well microtiter plate. The mixture solution was gently shaken and incubated at room temperature for 15 minutes. 2.5 μL of biotin-H3 (21-44) peptide substrate solution was added to the buffer to initiate the methyl transfer reaction. The final concentrations of PRC2, SAM, biotin-H3 peptide substrate, and DMSO were 2 ng/L, 30 μM, 10 μM, and 1%, respectively. The reaction was gently shaken at room temperature away from light for 120 minutes, and then 10 μL of monoclonal antibody histone H3K27Mel-Eu (K) fluorescent donor and streptavidin-labeled XL665 fluorescent receptor in the detection buffer from the manufacturer were added to the reaction mixture for incubation for 60 minutes. The final concentrations of these two reagents were 50 ng/ml and 62.5 nM, respectively. The plate was read on an Envision multi-template reader from PerkinElmer (Waltham MA USA) with an excitation wavelength of 320 nm and emission wavelengths of 665 and 615 nm. The IC50 value of the inhibitor was obtained by fitting an S-shaped dose-response curve (variable slope, four parameters) of fluorescence intensities at 665 nm and 615 nm over inhibitor concentrations by using Prism 7 (La Jolla, CA).

| IC50 (Karpas422 cells) | IC50 (Wild-type PRC2/EZH2) | Structure (SMILES) | IC50 (WSUDLCL-2 cells) |
| --- | --- | --- | --- |
| 52 nM | – | COc1cc(C)[nH]c(=O)c1CN1CCn2ccc3cc(-c4c(C)noc4C)c(Cl)c(c32)C1=O [Compound 1, 10-chloro-9-(3,5-dimethylisoxazol-4-yl)-2-((4-methoxy-6-methyl-2-oxo-1,2-dihydropyridin-3-yl)methyl)-3,4-dihydro-[1,4]diazepino[6,7,1-HI]indol-1(2H)-one] | 3.8 nM |
| – | 2530 nM | COc1cc(C)[nH]c(=O)c1CN1CCn2ccc3cc(-c4c(C)nn(C)c4C)c(Cl)c(c32)C1=O [Compound 4, 10-chloro-2-((4-methoxy-6-methyl-2-oxo-1,2-dihydropyridin-3-yl)methyl)-9-(1,3,5-trimethyl-1H-pyrazol-4-yl)-3,4-dihydro-[1,4]diazepino[6,7,1-HI]indol-1(2H)-one] | – |
| – | 253 nM | COc1cc(C)[nH]c(=O)c1CN1CCn2ccc3cc(-c4c(C)cnn4C)c(Cl)c(c32)C1=O [Compound 5, 10-chloro-9-(1,4-dimethyl-1H-pyrazol-5-yl)-2-((4-methoxy-6-methyl-2-oxo-1,2-dihydropyridin-3-yl)methyl)-3,4-dihydro-[1,4]diazepino[6,7,1-HI]indol-1(2H)-one] | – |
| – | 3650 nM | COc1cc(C)[nH]c(=O)c1CN1CCn2ccc3cc(-c4c(C)nn(CCO)c4C)c(Cl)c(c32)C1=O [Compound 7, 10-chloro-9-(1-(2-hydroxyethyl)-3,5-dimethyl-1H-pyrazol-4-yl)-2-((4-methoxy-6-methyl-2-oxo-1,2-dihydropyridin-3-yl)methyl)-3,4-dihydro-[1,4]diazepino[6,7,1-HI]indol-1(2H)-one] | – |
| – | 1090 nM | COc1cc(C)[nH]c(=O)c1CN1CCn2ccc3cc(-c4c(C)nn(CC#N)c4C)c(Cl)c(c32)C1=O [Compound 8, 2-(4-(10-chloro-2-((4-methoxy-6-methyl-2-oxo-1,2-dihydropyridin-3-yl)methyl)-1-oxo-1,2,3,4-tetrahydro-[1,4]diazepino[6,7,1-HI]indol-9-yl)-3,5-dimethyl-1H-pyrazol-1-yl)acetonitrile] | – |
| 359 nM | – | COc1cc(C)[nH]c(=O)c1CN1CCn2cnc3cc(-c4c(C)noc4C)c(Cl)c(c32)C1=O [Compound 13, 5-chloro-4-(3,5-dimethylisoxazol-4-yl)-7-((4-methoxy-6-methyl-2-oxo-1,2-dihydropyridin-3-yl)methyl)-8,9-dihydro-2,7,9a-triazabenzo[cd]azulen-6(7H)-one] | 56.1 nM |
| 50.1 nM | 17.8 nM | COc1cc(C)[nH]c(=O)c1CN1CCn2ccc3cc(-c4c(C)noc4C)c(C)c(c32)C1=O [Compound 15, 9-(3,5-dimethylisoxazol-4-yl)-2-((4-methoxy-6-methyl-2-oxo-1,2-dihydropyridin-3-yl)methyl)-10-methyl-3,4-dihydro-[1,4]diazepino[6,7,1-HI]indol-1(2H)-one] | 1.2 nM |

The next lines start with the compound.

| Structure (SMILES) | IC50 (Karpas422 cells) | IC50 (Wild-type PRC2/EZH2) | IC50 (WSUDLCL-2 cells) |
| --- | --- | --- | --- |
| CCN(c1cc2ccn3c2c(c1Cl)C(=O)N(Cc1c(OC)cc(C)[nH]c1=O)CC3)C1COC1 [Compound 2, 10-chloro-9-(ethyl(oxetan-3-yl)amino)-2-((4-methoxy-6-methyl-2-oxo-1,2-dihydropyridin-3-yl)methyl)-3,4-dihydro-[1,4]diazepino[6,7,1-HI]indol-1(2H)-one] | – | 3.8 nM | – |
| COc1cc(C)[nH]c(=O)c1CN1CCN2CCc3cc(-c4c(C)noc4C)c(Cl)c(c32)C1=O [Compound 3, 10-chloro-9-(3,5-dimethylisoxazol-4-yl)-2-((4-methoxy-6-methyl-2-oxo-1,2-dihydropyridin-3-yl)methyl)-3,4,6,7-tetrahydro-[1,4]diazepino[6,7,1-HI]indol-1(2H)-one] | – | 19.9 nM | – |
| COc1cc(C)[nH]c(=O)c1CN1CCn2cc(Cl)c3cc(-c4c(C)cnn4C)c(Cl)c(c32)C1=O [Compound 6, 7,10-dichloro-9-(1,4-dimethyl-1H-pyrazol-5-yl)-2-((4-methoxy-6-methyl-2-oxo-1,2-dihydropyridin-3-yl)methyl)-3,4-dihydro-[1,4]diazepino[6,7,1-HI]indol-1(2H)-one] | – | 1120 nM | – |
| COc1cc(C)[nH]c(=O)c1CN1CCn2ccc3cc(C(OC)C4COC4)c(Cl)c(c32)C1=O (stereo not shown) [Compound 9, 10-chloro-9-(methoxy(oxetan-3-yl)methyl)-2-((4-methoxy-6-methyl-2-oxo-1,2-dihydropyridin-3-yl)methyl)-3,4-dihydro-[1,4]diazepino[6,7,1-HI]indol-1(2H)-one] | – | 21.5 nM | – |
| COc1cc(C)[nH]c(=O)c1CN1CCn2ccc3cc([C@H](OC)C4COC4)c(Cl)c(c32)C1=O [Compound 10, (R)-10-chloro-9-(methoxy(oxetan-3-yl)methyl)-2-((4-methoxy-6-methyl-2-oxo-1,2-dihydropyridin-3-yl)methyl)-3,4-dihydro-[1,4]diazepino[6,7,1-HI]indol-1(2H)-one] | 11.4 nM | 7.2 nM | 2.4 nM |
| COc1cc(C)[nH]c(=O)c1CN1CCn2ccc3cc([C@@H](OC)C4COC4)c(Cl)c(c32)C1=O [Compound 11, (S)-10-chloro-9-(methoxy(oxetan-3-yl)methyl)-2-((4-methoxy-6-methyl-2-oxo-1,2-dihydropyridin-3-yl)methyl)-3,4-dihydro-[1,4]diazepino[6,7,1-HI]indol-1(2H)-one] | 934 nM | 557 nM | 104 nM |
| COc1cc(C)[nH]c(=O)c1CN1CCn2ncc3cc(-c4c(C)noc4C)c(Cl)c(c32)C1=O [Compound 12, 5-chloro-4-(3,5-dimethylisoxazol-4-yl)-7-((4-methoxy-6-methyl-2-oxo-1,2-dihydropyridin-3-yl)methyl)-8,9-dihydro-[1,4]diazepino[6,7,1-HI]indazol-6(7H)-one] | 87.6 nM | – | 11 nM |
| COc1cc(C)[nH]c(=O)c1CN1CCn2ccc3cc(C(OC)C4COC4)c(C)c(c32)C1=O (stereo not shown) [Compound 14, 9-(methoxy(oxetan-3-yl)methyl)-2-((4-methoxy-6-methyl-2-oxo-1,2-dihydropyridin-3-yl)methyl)-10-methyl-3,4-dihydro-[1,4]diazepino[6,7,1-HI]indol-1(2H)-one] | 28.7 nM | 11.8 nM | 4.8 nM |
| COc1cc(C)[nH]c(=O)c1CN1CC(C)n2ccc3cc(-c4c(C)noc4C)c(Cl)c(c32)C1=O (stereo not shown) [Compound 16, 10-chloro-9-(3,5-dimethylisoxazol-4-yl)-2-((4-methoxy-6-methyl-2-oxo-1,2-dihydropyridin-3-yl)methyl)-4-methyl-3,4-dihydro-[1,4]diazepino[6,7,1-HI]indol-1(2H)-one] | 158 nM | – | 4.6 nM |
| COc1cc(C)[nH]c(=O)c1CN1C(=O)c2c(Cl)c(-c3c(C)noc3C)cc3ccn(c23)CC1C (stereo not shown) [Compound 17, 10-chloro-9-(3,5-dimethylisoxazol-4-yl)-2-((4-methoxy-6-methyl-2-oxo-1,2-dihydropyridin-3-yl)methyl)-3-methyl-3,4-dihydro-[1,4]diazepino[6,7,1-HI]indol-1(2H)-one] | 35 nM | 14 nM | 1.2 nM |
